Test results from patent US4113944A, “Cephalosporin-type antibiotics and process for producing the same” (Meiji Seika Kaisha, Ltd., priority 1974, dated 1978).
Values after ≈ are worked out from the molar mass of the structure shown. Read-outs that look alike come from different tables or passages of the source.

Columns and labels:
[1] = acute toxicity in mice (LD50); details: mouse, in vivo
[2] = tested on: Salmonella enteritidis No.11; assay: ED50 in mice suffering from infectious disease, Salmonella enteritidis No.11; format: in vivo; details: Salmonella enterica
Method: (§1) The ED50 values of the above obtained compounds were determined by intravenously administering the compounds to mice suffering from infectious diseases caused by various bacteria and were compared with those obtained using known antibiotics.

[3] = tested on: Proteus vulgaris; assay: Minimum Inhibitory Concentration (antimicrobial activity), Proteus vulgaris; format: cell-based; details: read-out: Minimum Inhibitory Concentration (MIC)
[4] = tested on: Salmonella; assay: Minimum Inhibitory Concentration (antimicrobial activity), Salmonella; format: cell-based
[5] = tested on: Salmonella typhi W-901-10; assay: ED50 in mice suffering from infectious disease, Salmonella typhi W-901-10; format: in vivo; details: Salmonella enterica, iv
Method: as §1

[6] = tested on: Proteus vulgaris C-73-9; assay: ED50 in mice suffering from infectious disease, Proteus vulgaris C-73-9; format: in vivo
Method: as §1

[7] = tested on: Staphylococcus aureus Smith S-424; assay: ED50 in mice suffering from infectious disease, Staphylococcus aureus Smith S-424; format: in vivo
Method: as §1

[8] = tested on: Escherichia coli; assay: Minimum Inhibitory Concentration (antimicrobial activity), Escherichia coli; format: cell-based
[9] = tested on: Kurebusiera pneumonia; assay: Minimum Inhibitory Concentration (antimicrobial activity), Kurebusiera pneumonia; format: cell-based
[10] = tested on: Staphylococcus aureaus; assay: Minimum Inhibitory Concentration (antimicrobial activity), Staphylococcus aureus; format: cell-based
[11] = tested on: Pseudomonas aeruginose; assay: Minimum Inhibitory Concentration (antimicrobial activity), Pseudomonas; format: cell-based
[12] = Salmonella enteritidis No.11, intravenous, mice, Example 1 as disodium salt, read-out: ED50
[13] = C739, Proteus vulgaris C-73-9 (strains produced from Cephalosporinase), intravenous, mice, Example 1 as disodium salt, read-out: ED50
[14] = acute toxicity, mice, Example 1 as disodium salt, read-out: LD50

Row | Compound | MIC [3] | MIC [4] | MIC [8] | further results
1 | O=C(Cc1cccs1)N[C@@H]1C(=O)N2C(C(=O)[O-])=C(C[n+]3ccccc3)CS[C@H]12 [Cephaloridine] |  |  |  | LD50 [1]: 3840 mg/kg
2 | O=C(O)Cc1nnc(SCC2=C(C(=O)O)N3C(=O)C(NC(=O)Cc4cccs4)[C@H]3SC2)[nH]1 (some centres unmarked) [Example 1, 7-(2-thienylacetamido)-3-(5-carboxymethyl-1,3,4-triazol-2-yl)thiomethyl-3-cephem-4-carboxylic acid] | 3.13 µg/mL (≈ 6.32 µM) | 0.78 µg/mL (≈ 1.57 µM) | 6.25 µg/mL (≈ 12.6 µM) | ED50 [2, 12]: 27 mg/kg; ED50 [5]: 52 mg/kg; ED50 [6, 13]: 7.3 mg/kg; ED50 ([7]; SMITHS424, Staphylococcus aureus Smith S-424, intravenous, mice, Example 1 as dipotassium salt, read-out: ED50): 8.5 mg/kg; LD50 [1, 14]: 6300 mg/kg
3 | O=C(O)CCc1nnc(SCC2=C(C(=O)O)N3C(=O)C(NC(=O)Cc4cccs4)[C@H]3SC2)[nH]1 (some centres unmarked) [Example 2, 7-(2-thienylacetamido)-3-[5-(2-carboxyethyl)-1,3,4-triazol-2-yl]thiomethyl-3-cephem-4-carboxylic acid] | 0.2 µg/mL (≈ 0.392 µM) | 0.78 µg/mL (≈ 1.53 µM) | 6.25 µg/mL (≈ 12.3 µM) | 
4 | Cn1c(CCC(=O)O)nnc1SCC1=C(C(=O)O)N2C(=O)C(NC(=O)Cc3cccs3)[C@H]2SC1 (some centres unmarked) [Example 3, 7-(2-thienylacetamido)-3-[5-(2-carboxyethyl)-1-methyl-1,3,4-triazol-2-yl]thiomethyl-3-cephem-4-carboxylic acid] | 0.78 µg/mL (≈ 1.49 µM) | 0.78 µg/mL (≈ 1.49 µM) | 1.56 µg/mL (≈ 2.98 µM) | 
5 | O=C(O)CCc1nnc(SCC2=C(C(=O)O)N3C(=O)C(NC(=O)Cc4cccs4)[C@H]3SC2)n1-c1ccccc1 (some centres unmarked) [Example 4, 7-(2-thienylacetamido)-3-[5-(2-carboxyethyl)-1-phenyl-1,3,4-triazol-2-yl]thiomethyl-3-cephem-4-carboxylic acid] | 1.56 µg/mL (≈ 2.66 µM) | 25 µg/mL (≈ 42.7 µM) | 25 µg/mL (≈ 42.7 µM) | 
6 | Cn1c(CC(=O)O)nnc1SCC1=C(C(=O)O)N2C(=O)C(NC(=O)Cc3cccs3)[C@H]2SC1 (some centres unmarked) [Example 5, 7-(2-thienylacetamido)-3-(5-carboxymethyl-1-methyl-1,3,4-triazol-2-yl)-thiomethyl-3-cephem-4-carboxylic acid] | 0.2 µg/mL (≈ 0.392 µM) | 0.78 µg/mL (≈ 1.53 µM) | 3.13 µg/mL (≈ 6.14 µM) | 
7 | O=C(Cc1cccs1)NC1C(=O)N2C(C(=O)O)=C(CSc3nnc(C(=O)O)[nH]3)CS[C@H]12 (some centres unmarked) [Example 6, 7-(2-thienylacetamido)-3-(5-carboxy-1,3,4-triazol-2-yl)thiomethyl-3-cephem-4-carboxylic acid] | 0.2 µg/mL (≈ 0.415 µM) | 3.13 µg/mL (≈ 6.5 µM) | 6.25 µg/mL (≈ 13 µM) | 
8 | Cn1c(SCC2=C(C(=O)O)N3C(=O)C(NC(=O)Cc4cccs4)C3SC2)nnc1C(=O)O (centres unmarked) [Example 7, 7-(2-thienylacetamido)-3-(5-carboxy-1-methyl-1,3,4-triazol-5-yl)-thiomethyl-3-cephem-4-carboxylic acid] | 0.39 µg/mL (≈ 0.787 µM) | 0.78 µg/mL (≈ 1.57 µM) | 1.56 µg/mL (≈ 3.15 µM) | 
9 | O=C(Cc1cccs1)NC1C(=O)N2C(C(=O)O)=C(CSc3nnc(C(=O)O)n3-c3ccccc3)CSC12 (centres unmarked) [Example 8, 7-(2-thienylacetamido)-3-(5-carboxy-1-phenyl-1,3,4-triazol-5-yl)thiomethyl-3-cephem-4-carboxylic acid] | 0.78 µg/mL (≈ 1.4 µM) | 12.5 µg/mL (≈ 22.4 µM) | 25 µg/mL (≈ 44.8 µM) | 
10 | Cn1cnnc1SCC1=C(C(=O)O)N2C(=O)C(NC(=O)Cc3cccs3)C2SC1 (centres unmarked) [Example 22, 7-(2-thienylacetamide)-3-(1-methyl-1,3,4-triazol-5-yl)thiomethyl-3-cephem-4-carboxylic acid] | 50 µg/mL (≈ 111 µM) | 1.56 µg/mL (≈ 3.45 µM) | 6.25 µg/mL (≈ 13.8 µM) | MIC [9]: 0.78 µg/mL (≈ 1.73 µM); MIC [10]: 0.78 µg/mL (≈ 1.73 µM); MIC [11]: 1.56 µg/mL (≈ 3.45 µM)
11 | CC(=O)OCC1=C(C(=O)O)N2C(=O)[C@@H](NC(=O)Cc3cccs3)[C@H]2SC1 [Sodium Cephalotin, 7-(2-thienylacetamido)cephalosporanic acid, reference compound] | 2.5 µg/mL | 3.13 µg/mL | 6.25 µg/mL | ED50 ([2]; ENTERITIDIS, iv): 480 mg/kg; ED50 [5]: 200 mg/kg; ED50 ([6]; Proteus vulgaris, C739, iv): 14 mg/kg; ED50 ([7]; Staphylococcus aureus, SMITHS424, iv): 19 mg/kg; LD50 [1, 14]: 5180 mg/kg
12 | Cc1nnc(SCC2=C(C(=O)O)N3C(=O)[C@@H](NC(=O)Cn4cnnn4)[C@H]3SC2)s1 [Sodium Cephazoline] |  |  |  | ED50 [2, 12]: 130 mg/kg; ED50 [6, 13]: 18.5 mg/kg; LD50 [1, 14]: 3130 mg/kg
